Publication PMC8426393, “Interactions of anti-COVID-19 drug candidates with hepatic transporters may cause liver toxicity and affect pharmacokinetics” (Scientific Reports, 2021)
Like-named read-outs stand apart in the source and are kept apart here.

Assays:
ABCC4/MRP4 = biological target: T1, ABCC4/MRP4 (Homo sapiens, UniProt O15439); assay: MRP4 vesicular transport: ATP-dependent DHEAS uptake into inverted HEK-293 membrane vesicles; assay type: biochemical; settings: for inhibition at […]: up to 50 µM drug, read-out: maximum inhibition of MRP4-dependent substrate transport; for ABCC4/MRP4 Type of effect: DHEAS 0.5 µM, 32 °C, HEK-293 vesicles
T1 construct: purchased Solvo Biotechnology (Budapest, Hungary); host or cells: HEK-293 cells
T1 sequence (O15439 1-1325): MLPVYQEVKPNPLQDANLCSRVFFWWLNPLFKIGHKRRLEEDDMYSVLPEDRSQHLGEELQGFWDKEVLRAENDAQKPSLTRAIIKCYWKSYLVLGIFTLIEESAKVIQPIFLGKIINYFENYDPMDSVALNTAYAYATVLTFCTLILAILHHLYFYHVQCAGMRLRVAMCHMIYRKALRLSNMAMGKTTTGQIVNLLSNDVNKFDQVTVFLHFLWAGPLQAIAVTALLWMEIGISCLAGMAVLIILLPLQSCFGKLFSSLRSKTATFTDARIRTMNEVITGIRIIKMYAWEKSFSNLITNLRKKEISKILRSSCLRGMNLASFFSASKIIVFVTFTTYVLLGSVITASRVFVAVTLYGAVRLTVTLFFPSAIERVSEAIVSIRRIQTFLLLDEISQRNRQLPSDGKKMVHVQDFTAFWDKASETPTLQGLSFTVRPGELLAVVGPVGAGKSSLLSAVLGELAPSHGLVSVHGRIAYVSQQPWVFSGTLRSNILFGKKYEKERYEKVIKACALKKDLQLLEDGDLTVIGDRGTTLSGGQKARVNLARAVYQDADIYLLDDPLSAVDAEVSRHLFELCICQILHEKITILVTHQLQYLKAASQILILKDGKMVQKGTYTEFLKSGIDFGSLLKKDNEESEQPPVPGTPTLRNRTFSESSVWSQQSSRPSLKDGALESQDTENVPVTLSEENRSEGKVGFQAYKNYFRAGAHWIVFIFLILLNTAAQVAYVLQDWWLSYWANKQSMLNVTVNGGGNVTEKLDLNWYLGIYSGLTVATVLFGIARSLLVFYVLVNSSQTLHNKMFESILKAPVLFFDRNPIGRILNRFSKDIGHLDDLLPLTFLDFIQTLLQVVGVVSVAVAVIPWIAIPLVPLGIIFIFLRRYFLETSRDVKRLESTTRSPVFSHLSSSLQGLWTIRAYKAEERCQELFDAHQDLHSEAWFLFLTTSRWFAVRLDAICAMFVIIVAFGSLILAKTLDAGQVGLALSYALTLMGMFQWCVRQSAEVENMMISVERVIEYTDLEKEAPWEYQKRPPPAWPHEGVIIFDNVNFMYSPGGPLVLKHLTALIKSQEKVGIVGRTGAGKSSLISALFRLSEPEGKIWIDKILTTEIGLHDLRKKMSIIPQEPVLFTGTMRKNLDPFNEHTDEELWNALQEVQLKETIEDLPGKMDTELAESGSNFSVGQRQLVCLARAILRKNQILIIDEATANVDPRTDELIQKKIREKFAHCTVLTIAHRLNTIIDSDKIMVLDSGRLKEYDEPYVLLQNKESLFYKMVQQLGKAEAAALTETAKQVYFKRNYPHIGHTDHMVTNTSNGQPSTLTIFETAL

ABCB11/BSEP = biological target: T2, ABCB11/BSEP (Homo sapiens, UniProt O95342); assay: BSEP vesicular transport: ATP- and glyburide-sensitive taurocholate uptake into inverted HEK-293 membrane vesicles; assay type: biochemical; settings: for ABCB11/BSEP Type of effect: HEK-293 vesicles; for concentration at which BSEP inhibition is effective: taurocholate transport
T2 construct: purchased Solvo Biotechnology (Budapest, Hungary); host or cells: HEK-293 cells

OATP1B1 = biological target: T3, OATP1B1 (Homo sapiens, UniProt Q9Y6L6); assay: OATP1B1-dependent pyranine uptake in overexpressing A431 cells; assay type: cell-based; settings: for OATP1B1 Type of effect: A431 cells
T3 construct: expressed in transfected cells; host or cells: A431 cells (ATCC)
T3 sequence (Q9Y6L6 1-691): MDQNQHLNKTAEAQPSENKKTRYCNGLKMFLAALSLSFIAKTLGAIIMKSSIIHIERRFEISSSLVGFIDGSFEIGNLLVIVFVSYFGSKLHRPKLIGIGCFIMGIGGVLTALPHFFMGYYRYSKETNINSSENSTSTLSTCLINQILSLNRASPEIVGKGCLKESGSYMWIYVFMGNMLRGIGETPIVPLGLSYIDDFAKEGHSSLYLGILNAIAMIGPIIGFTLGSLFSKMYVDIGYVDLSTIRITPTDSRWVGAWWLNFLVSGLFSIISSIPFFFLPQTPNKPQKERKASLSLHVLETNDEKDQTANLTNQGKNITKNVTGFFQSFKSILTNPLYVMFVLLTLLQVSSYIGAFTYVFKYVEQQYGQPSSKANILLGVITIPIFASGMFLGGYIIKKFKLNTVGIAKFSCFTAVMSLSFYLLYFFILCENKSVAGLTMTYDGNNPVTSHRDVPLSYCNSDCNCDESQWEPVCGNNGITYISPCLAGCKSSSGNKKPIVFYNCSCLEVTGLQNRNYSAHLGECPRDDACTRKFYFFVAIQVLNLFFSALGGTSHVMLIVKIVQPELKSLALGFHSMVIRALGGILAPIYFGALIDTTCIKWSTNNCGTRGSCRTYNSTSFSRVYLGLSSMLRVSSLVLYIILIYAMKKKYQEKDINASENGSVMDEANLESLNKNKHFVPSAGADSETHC

ABCG2/BCRP = test system: ABCG2/BCRP; set-up: method as in Telbisz et al., 2021; settings: vesicular transporter assay, measured previously; ref Telbisz et al., 2021; cited from earlier work
[1] = human, probe DHEAS (0.5 µM unlabeled plus 0.2 µCi radiolabeled)
[2] = taurocholate 2 µM, 37 °C, 10 min

T2 sequence (O95342 whole entry): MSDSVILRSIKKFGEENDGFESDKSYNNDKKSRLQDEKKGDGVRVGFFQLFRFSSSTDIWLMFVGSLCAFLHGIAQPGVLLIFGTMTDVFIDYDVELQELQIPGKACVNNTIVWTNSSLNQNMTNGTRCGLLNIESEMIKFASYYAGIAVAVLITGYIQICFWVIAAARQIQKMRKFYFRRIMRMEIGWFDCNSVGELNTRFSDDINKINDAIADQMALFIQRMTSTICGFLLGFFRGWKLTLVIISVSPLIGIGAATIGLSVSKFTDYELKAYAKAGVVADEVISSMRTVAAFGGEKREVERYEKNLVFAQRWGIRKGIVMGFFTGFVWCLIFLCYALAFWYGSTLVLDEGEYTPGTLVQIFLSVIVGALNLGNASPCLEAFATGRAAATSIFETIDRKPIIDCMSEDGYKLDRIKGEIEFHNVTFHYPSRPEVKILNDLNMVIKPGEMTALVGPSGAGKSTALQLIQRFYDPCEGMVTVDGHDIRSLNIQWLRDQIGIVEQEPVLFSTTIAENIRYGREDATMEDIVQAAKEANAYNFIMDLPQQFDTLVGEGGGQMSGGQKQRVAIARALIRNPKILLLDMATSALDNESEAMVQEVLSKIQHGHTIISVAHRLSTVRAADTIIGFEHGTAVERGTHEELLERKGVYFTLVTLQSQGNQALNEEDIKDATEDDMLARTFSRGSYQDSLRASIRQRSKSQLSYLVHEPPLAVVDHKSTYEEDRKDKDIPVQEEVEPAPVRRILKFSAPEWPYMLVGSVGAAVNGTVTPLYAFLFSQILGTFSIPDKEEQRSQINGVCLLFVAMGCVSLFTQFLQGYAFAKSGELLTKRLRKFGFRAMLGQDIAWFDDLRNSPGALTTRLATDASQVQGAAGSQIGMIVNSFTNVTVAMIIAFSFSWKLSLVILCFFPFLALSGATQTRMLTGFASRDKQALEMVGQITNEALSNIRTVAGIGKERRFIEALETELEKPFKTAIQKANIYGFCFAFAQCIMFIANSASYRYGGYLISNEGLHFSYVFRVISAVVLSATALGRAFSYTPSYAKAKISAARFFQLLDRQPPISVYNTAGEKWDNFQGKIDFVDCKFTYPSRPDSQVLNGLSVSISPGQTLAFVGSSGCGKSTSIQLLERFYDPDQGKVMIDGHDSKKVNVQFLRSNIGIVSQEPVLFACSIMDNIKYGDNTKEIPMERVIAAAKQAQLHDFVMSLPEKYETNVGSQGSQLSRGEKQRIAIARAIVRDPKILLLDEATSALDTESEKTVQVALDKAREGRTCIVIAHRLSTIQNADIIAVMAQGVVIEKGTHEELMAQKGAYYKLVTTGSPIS

In the case of `NC(=O)c1nc(F)c[nH]c1=O` [FAV, favipiravir], the inhibition at […] (ABCC4/MRP4; [1]) is reported as 10 to 30%, the “ABCB11/BSEP Type of effect” value (ABCB11/BSEP; [2]) is reported as “did not modify BSEP-mediated TC transport” and the “OATP1B1 Type of effect” value (OATP1B1; pyranine 10 µM, 15 min, 37 °C) is reported as “did not modify OATP functionality”.

With `CCC(C)C1OC2(CCC1C)CC1CC(CC=C(C)C(OC3CC(OC)C(OC4CC(OC)C(O)C(C)O4)C(C)O3)C(C)C=CC=C3COC4C(O)C(C)=CC(C(=O)O1)C34O)O2` (stereo not shown) [IVE, ivermectin] the “ABCC4/MRP4 Type of effect” value (ABCC4/MRP4) was “No effect”, the IC50 (ABCB11/BSEP; approximate IC50, taurocholate 2 µM, 37 °C, 10 min) was at least 30000 nM and the “ABCB11/BSEP Type of effect” value (ABCB11/BSEP; [2]) was “inh”. For the same molecule, the “concentration at which BSEP inhibition is effective” value (ABCB11/BSEP) was “above 20 µM”, the IC50 (OATP1B1; approximate IC50, pyranine 10 µM, 15 min, 37 °C) was at least 20000 nM and the “OATP1B1 Type of effect” value (OATP1B1; pyranine 10 µM, 15 min, 37 °C) was “inh”. For the same molecule, the “ABCG2/BCRP type of effect” value (ABCG2/BCRP) was “inh” and the IC50 (ABCG2/BCRP) was 1100 nM.

Work on `CCC(CC)COC(=O)[C@H](C)N[P@](=O)(OC[C@H]1O[C@@](C#N)(c2ccc3c(N)ncnn23)[C@H](O)[C@@H]1O)Oc1ccccc1` [REM, remdesivir] yielded an IC50 (ABCC4/MRP4) of 2900 nM, an IC50 at […] (ABCC4/MRP4; [1]) of about 2300 nM and an IC50 (ABCB11/BSEP) of at least 40000 nM. The inhibition at 10 min, 50 µM (ABCB11/BSEP; human, at 50 µM) was 40 to 50%, the “ABCB11/BSEP Type of effect” value (ABCB11/BSEP; [2]) was “inh” and the “concentration at which BSEP inhibition is effective” value (ABCB11/BSEP) was “above 20 µM”. For the same molecule, the IC50 (OATP1B1) was 2900 nM, the “OATP1B1 Type of effect” value (OATP1B1; pyranine 10 µM, 15 min, 37 °C) was “inh” and the “ABCG2/BCRP type of effect” value (ABCG2/BCRP) was “inh”. For the same molecule, the IC50 (ABCG2/BCRP) was over 50000 nM.

For `Cc1cccc(C)c1OCC(=O)N[C@@H](Cc1ccccc1)[C@@H](O)C[C@H](Cc1ccccc1)NC(=O)[C@H](C(C)C)N1CCCNC1=O` [LOP, lopinavir], the “ABCC4/MRP4 Type of effect” value (ABCC4/MRP4) was “No effect”, the inhibition at […] (ABCC4/MRP4; [1]) was 10 to 30% and the IC50 (ABCB11/BSEP) was 7800 nM. The “ABCB11/BSEP Type of effect” value (ABCB11/BSEP; [2]) was “strongly inhibited TC transport at low concentrations and inh”, the IC50 (OATP1B1) was 1100 nM and the “ABCG2/BCRP type of effect” value (ABCG2/BCRP) was “inh”. The IC50 (ABCG2/BCRP) was 4200 nM.
